# Reference: the supplement of paper PMC4862054
# “And” between values parts separate entries of the source, which are not always exact repeats. Identical values can stand only once.
# What was measured:
# Assay in all cases: normalised viability (% of control), CellTiter-Blue; higher = more viable cells (about 100 = DMSO control)
# Conditions in all cases: incubation time: 72 h
# CAL-148 [1] = test system: CAL-148
# Experimental: (§1)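 DSRT, CellTiter-Blue viability, 72 h incubation. Signal is normalised to DMSO and benzethonium chloride controls. Value is the normalised response at dose 8.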
# CAL-51 [2] = test system: CAL-51
# Experimental: as §1
# CAL-85-1 [3] = test system: CAL-85-1
# Experimental: as §1
# DU-4475 [4] = test system: DU-4475
# Experimental: as §1
# HDQ-P1 [5] = test system: HDQ-P1
# Experimental: as §1
# MDA-MB-453 [6] = test system: MDA-MB-453
# Experimental: as §1
# CAL-148 [7] = test system: CAL-148; remark: listed apart in the source
# Experimental: (§2)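 DSRT, CellTiter-Blue viability, 72 h incubation. Signal is normalised to DMSO and benzethonium chloride controls. Value is the normalised response at dose 6.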
# CAL-51 [8] = test system: CAL-51; remark: listed apart in the source
# Experimental: as §2
# CAL-85-1 [9] = test system: CAL-85-1; remark: listed apart in the source
# Experimental: as §2
# DU-4475 [10] = test system: DU-4475; remark: listed apart in the source
# Experimental: as §2
# HDQ-P1 [11] = test system: HDQ-P1; remark: listed apart in the source
# Experimental: as §2
# MDA-MB-453 [12] = test system: MDA-MB-453; remark: listed apart in the source
# Experimental: as §2
Structure (SMILES),normalised viability (CAL-148 [1]),normalised viability (CAL-51 [2]),normalised viability (CAL-85-1 [3]),normalised viability (DU-4475 [4]),normalised viability (HDQ-P1 [5]),normalised viability (MDA-MB-453 [6]),normalised viability (CAL-148 [7]),normalised viability (CAL-51 [8]),normalised viability (CAL-85-1 [9]),normalised viability (DU-4475 [10]),normalised viability (HDQ-P1 [11]),normalised viability (MDA-MB-453 [12])
Cc1cccc(-c2nn3c(c2-c2ccnc4ccc(C(N)=O)cc24)CCC3)n1 (300 nM),110%,103%,108%,102%,125%,115%,,,,,,
Cn1cc(CNCC2CCN(c3ncc(C(=O)NO)cn3)CC2)c2ccccc21 (300 nM),1.57%,7.57%,8.58%,2.97%,18.8%,2.81%,,,,,,
COc1ccc(-c2cc3c(C)nc(N)nc3n([C@H]3CC[C@H](OCCO)CC3)c2=O)cn1 (3000 nM),6.69%,2.65%,10.4%,6.45%,10.7%,3.88%,,,,,,
O=C(NC[C@H](O)CO)c1ccncc1Nc1ccc(I)cc1F (3000 nM),66.8%,78.9%,48%,0.63%,57.4%,57.3%,,,,,,
Nc1nc(=O)c2c([nH]1)NCC(CNc1ccc(C(=O)N[C@@H](CCC(=O)O)C(=O)O)cc1)N2C=O (mixture of isomers) [Folinic acid] (29.7 nM),,,,,,,86.6%,97.8%,100%,115%,140%,99.8%
Nc1nc(=O)c2c([nH]1)NCC(CNc1ccc(C(=O)N[C@@H](CCC(=O)O)C(=O)O)cc1)N2C=O (mixture of isomers) [Folinic acid] (297 nM),95.2%,92.8%,100%,98.8%,122%,106%,,,,,,
O=C(Nc1c[nH]nc1-c1nc2ccc(CN3CCOCC3)cc2[nH]1)NC1CC1 [AT9283] (300 nM),,,,,,,61.9%,59.1%,87.7%,28.4%,61.1%,58.1%
O=C(Nc1c[nH]nc1-c1nc2ccc(CN3CCOCC3)cc2[nH]1)NC1CC1 [AT9283] (3000 nM),67.2%,25.5%,16.8%,0.96%,25.9%,26.9%,,,,,,
COc1cc(CCc2cc(NC(=O)c3ccc(N4CC(C)NC(C)C4)cc3)n[nH]2)cc(OC)c1 (stereo unspecified) [AZD4547] (30 nM),,,,,,,105%,107%,89.7%,92.7%,103%,109%
COc1cc(CCc2cc(NC(=O)c3ccc(N4CC(C)NC(C)C4)cc3)n[nH]2)cc(OC)c1 (stereo unspecified) [AZD4547] (300 nM),105%,96.4%,95.5%,97.8%,117%,56.1%,,,,,,
CCC/C=C/C=C/C(=O)O[C@H]1/C(=C/C(=O)OC)C[C@H]2C[C@H]([C@@H](C)O)OC(=O)C[C@H](O)C[C@@H]3C[C@H](OC(C)=O)C(C)(C)[C@](O)(C[C@@H]4C/C(=C/C(=O)OC)C[C@H](/C=C/C(C)(C)[C@]1(O)O2)O4)O3 [Bryostatin 1] (3 nM),,,,,,,85.5%,98.7%,110%,88.7%,78.6%,85.9%
CCC/C=C/C=C/C(=O)O[C@H]1/C(=C/C(=O)OC)C[C@H]2C[C@H]([C@@H](C)O)OC(=O)C[C@H](O)C[C@@H]3C[C@H](OC(C)=O)C(C)(C)[C@](O)(C[C@@H]4C/C(=C/C(=O)OC)C[C@H](/C=C/C(C)(C)[C@]1(O)O2)O4)O3 [Bryostatin 1] (30 nM),110%,95.3%,111%,65%,100%,96.6%,,,,,,
CO[C@@H](C(=O)N1Cc2[nH]nc(NC(=O)c3ccc(N4CCN(C)CC4)cc3)c2C1)c1ccccc1 [Danusertib] (300 nM),,,,,,,54.6%,60.3%,61.9%,57%,50.8%,60.2%
CO[C@@H](C(=O)N1Cc2[nH]nc(NC(=O)c3ccc(N4CCN(C)CC4)cc3)c2C1)c1ccccc1 [Danusertib] (3000 nM),53.5%,25.9%,40.5%,23.1%,27.8%,34.2%,,,,,,
Cc1nc(Nc2ncc(C(=O)Nc3c(C)cccc3Cl)s2)cc(N2CCN(CCO)CC2)n1 [Dasatinib] (30 nM),,,,,,,110% and 90.6%,59.8% and 68.3%,83.9% and 86%,105% and 87.6%,24.4% and 18.2%,102% and 101%
Cc1nc(Nc2ncc(C(=O)Nc3c(C)cccc3Cl)s2)cc(N2CCN(CCO)CC2)n1 [Dasatinib] (300 nM),90% and 89.1%,41.5% and 39.9%,51.2% and 43.6%,102% and 104%,9.87% and 10.7%,99.2% and 103%,,,,,,
O=S(=O)(c1cccc2cnccc12)N1CCCNCC1 [Fasudil] (300 nM),,,,,,,83.7%,107%,97.2%,117%,90.9%,106%
O=S(=O)(c1cccc2cnccc12)N1CCCNCC1 [Fasudil] (3000 nM),81.2%,118%,101%,113%,121%,99.4%,,,,,,
CS(=O)(=O)N1CCN(Cc2cc3nc(-c4cccc5[nH]ncc45)nc(N4CCOCC4)c3s2)CC1 [GDC-0941] (300 nM),,,,,,,83.5%,61%,73.2%,83.2%,37.6%,43.4%
CS(=O)(=O)N1CCN(Cc2cc3nc(-c4cccc5[nH]ncc45)nc(N4CCOCC4)c3s2)CC1 [GDC-0941] (3000 nM),18.6%,14.3%,31.9%,104%,14.5%,10.6%,,,,,,
Cc1c(CN2CCN(C(=O)[C@H](C)O)CC2)sc2c(N3CCOCC3)nc(-c3cnc(N)nc3)nc12 [GDC-0980] (300 nM),,,,,,,52.1%,38.7%,62%,68.3%,29.7%,18.3%
